Test system: hBD-2
Type: cell-based, human
Conditions: skin explant, systemic
Excerpt: Il est connu de WO 97/45101 que les esters d'α-alkylglucoside peuvent être utilisés comme agent anti-microbien et/ou anti-fongique pour agir en tant que conservateur dans une composition, pour la préserver d'un développement microbien. D'autre part, les propriétés moussantes des esters de méthyl glucose sont décrites dans Desai et al (« Sofw Journal Seife, Oele, Fette, Wachse, Verlag für chemische Industrie » 1991). • Modèle cellulaire : lignée cellulaire HaCat, kératynocytes d'origine humaine, primoculture de kératinocytes humains • Modèle tissulaire : • Explants de peau normale provenant de déchet opératoire de chirurgie esthétique • Explants de gencive normale provenant de déchet opératoire de chirurgie implantatoire ou d'épithélium gingival reconstruit à partir de cellules épithéliales orales primaires • ➢ Les cellules HaCat sont ensemencées et cultivées en plaque 6 puits à 200 000 cellules/puits sous un volume de 2 ml de milieu de culture DMEM 1640 : (Ref: Invitrogen) complémenté par 10 % de sérum de veau foetal (SVF, Ref : CH30160.02 Perbio-Hyclone) pendant 18 h (sur la nuit). • ➢ A T0 les cellules sont lavées avec du tampon Phosphate (PBS, Ref: 52100-039 Invitrogen) puis privées en sérum pour les rendre quiescentes pendant 24 h (ralentissement de leur croissance et élimination de toute trace de facteurs susceptibles de perturber les effets induits par les traitements ultérieurs). • ➢ A T0+24 h les cellules sont traitées par des cytokines pro-inflammatoires (TNF-α à 10 ng/ml, IL1-β à 10 ng/ml) ou des éléments bactériens (LPS à 50 ng/ml, SEB à 100 ng/ml) ou des actifs potentiels de type « alkyle mono- ou di-ester d'α,β-butylglucoside » dilués dans du DMEM (1 ml/puits); La durée du traitement est de 3 h à 37°C. • ➢ Les kératinocytes primaires sont préparés à partir de peau normale provenant de déchet opératoire de chirurgie esthétique. Ils sont ensemencés et cultivés en plaque 24 puits à 60 000 cellules/puits sous un volume de 0,5 ml de milieu de culture KSFM (Ref : 37010 Invitrogen) complémenté par de l'EGF (Epidermal Growth Factor) à 1,5 ng/ml et du BPE (bovine pituitary extract) à 25 µg/ml pendant 24 h. • ➢ A J0, le milieu est remplacé par 0,5 ml de milieu KSFM complet, additionné de 1,2 nM de calcium. • ➢ A J+3, les cellules sont traitées par des cytokines pro-inflammatoires TNF-α et IL 1-β à 10 ng/ml ou des actifs potentiels de type « alkyle mono- ou di-ester d'α,β-butylglucoside » dilués dans 0,3 ml de milieu KSFM complet, en présence de 1,2 nM de calcium. […]

For laurate de butylglucoside [αβ-LBG brut], the “incubation time from which hBD-2 induction is effective” value was ≤ 1 h and the “synthèse des transcrits hBD-2” value (30 µg/ml, in words) was “capable d'induire la synthèse des transcrits hBD-2”.

Reference: patent EP1978972B1, “USE OF ALKYLGLUCOSIDE ESTERS AS BETA-DEFENSIN INDUCERS” (Pierre Fabre Dermo-Cosmétique, priority 2006, dated 2007)
